Measured values reported in publication PMC9933482 (ACS Omega, 2023).
Values after ≈ are worked out from the molar mass of the structure shown. “Also recorded” adds a separate entry of the source.

How the values were obtained:
[1] = system: MCF-7 cell line; assay: MTT cytotoxicity assay, MCF-7; format: cell-based, human; details: Homo sapiens, MCF7, 24 h, read-out: IC50 in μg/mL MCF-7, MTT, 24 h treatment
[2] = system: HePG-2 cell line; assay: MTT cytotoxicity assay, HePG-2; format: cell-based, human; details: Homo sapiens, HepG2, 24 h, read-out: IC50 in μg/mL HePG-2, MTT, 24 h treatment
[3] = system: human lung fibroblast cell line WI38; assay: MTT cell viability, normal lung fibroblast WI38; format: cell-based; details: WI-38, read-out: IC50 in μg/mL WI38
[4] = target: human carbonic anhydrase IX (hCAIX) (Homo sapiens, UniProt Q16790); assay: biochemical
[5] = target: recombinant human carbonic anhydrase XII (hCAXII) (Homo sapiens, UniProt O43570); assay: hCAXII enzyme inhibition assay; format: biochemical
recombinant human carbonic anhydrase XII (hCAXII), sequence (O43570 25-291): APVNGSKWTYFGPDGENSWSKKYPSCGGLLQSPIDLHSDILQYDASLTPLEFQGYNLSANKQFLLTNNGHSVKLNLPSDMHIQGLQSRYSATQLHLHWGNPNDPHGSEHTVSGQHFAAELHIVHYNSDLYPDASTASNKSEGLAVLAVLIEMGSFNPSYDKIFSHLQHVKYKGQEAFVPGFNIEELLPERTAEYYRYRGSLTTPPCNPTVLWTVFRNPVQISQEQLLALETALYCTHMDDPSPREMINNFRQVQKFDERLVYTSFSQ

[6] = system: HePG-2 cells; assay: Annexin V-FITC/PI apoptosis and necrosis assay by flow cytometry; format: cell-based, human; details: for increase of early apoptotic ratio compared to control cells / increase of late apoptotic % compared to control cells / necrosis compared to the control cell HePG-2: HePG-2; for apoptosis total, cell content % / apoptosis early, cell content % / necrosis, cell content % / apoptosis late, cell content %: HePG-2, compound at IC50; for apoptosis early, cell content %: lower right quadrant; for necrosis, cell content %: upper left quadrant; for apoptosis late, cell content %: upper right quadrant
[7] = system: HePG-2 cells; assay: Cell cycle analysis by DNA flow cytometry; format: cell-based, human; details: for %G0–G1 (DNA content) / %G2/M (DNA content) / %S (DNA content): HePG-2, compound at IC50, 24 h
[8] = system: caspase-9; assay: Caspase 9 assay; format: cell-based, human; details: for increase in level of active caspase-9 compared to control: HePG-2; for Casp9 OD: HepG2 cells treated with compound

IC50 [4] [nM] | IC50 [5] [nM] | Structure (SMILES) | IC50 [1] [µg/mL] | IC50 [2] [µg/mL] | IC50 [3] [µg/mL] | increase of early apoptotic ratio compared to control cells [6] [fold] | increase of late apoptotic % compared to control cells [6] | necrosis compared to the control cell HePG-2 [6] [fold] | apoptosis total, cell content % [6] [%] | apoptosis early, cell content % [6] [%] | necrosis, cell content % [6] [%] | apoptosis late, cell content % [6] [%] | cell cycle comment (phase of arrest) ([7]; HePG-2) | %G0–G1 (DNA content) [7] [%] | %G2/M (DNA content) [7] [%] | %S (DNA content) [7] [%] | increase in level of active caspase-9 compared to control [8] [fold] | Casp9 OD [8] | further results
287 ± 14 | 123 ± 7 | CCOC(=O)C1CSc2[nH]c(=O)sc2C1c1cn(-c2ccccc2)nc1-c1ccc(Cl)cc1 (stereo not drawn) [compound 7i, Ethyl 7-(3-(4-Chlorophenyl)-1-phenyl-1H-pyrazol-4-yl)-2-oxo-3,5,6,7-tetra-hydro-2H-thiopyrano[2,3-d]thiazole-6-carboxylate] | 10.1 ± 1.5 (≈ 20.2 µM) | 7.83 ± 2.1 (≈ 15.7 µM) | 19.5 ± 1.6 (≈ 39.1 µM) | 52 | ~45 fold | ~3 | 41.13 | 28.71 | 2.91 | 9.51 | arrested in phase G2/M; also recorded: cell growth arrest@G2/M | 39.56 | 27.93 | 32.51 | 3 | 0.609 | increase of cell ratio in phase G2/M compared to the control ([7]; HePG-2): 1.6 fold; caspase-9 protein level vs untreated cells, Image J analysis ([8]; after normalization to β-actin): 2.98 fold
67 ± 3 | 202 ± 11 | N#CC1CSc2[nH]c(=O)sc2C1c1cn(-c2ccccc2)nc1-c1ccc(Br)cc1 (stereo not drawn) [compound 7e, 7-(3-(4-Bromophenyl)-1-phenyl-1H-pyrazol-4-yl)-2-oxo-3,5,6,7-tetrahydro-2H-thiopyrano-[2,3-d]thiazole-6-carbonitrile] | 10.1 ± 2.1 (≈ 20.4 µM) | 9.11 ± 3.2 (≈ 18.4 µM) | 27.1 ± 3.3 (≈ 54.6 µM) | 21 | approximately 101 fold | ~3 | 36.28 | 11.91 | 3.13 | 21.24 | arrested in phase S; also recorded: cell growth arrest@S | 41.39 | 14.36 | 44.25 | ~4 | 0.813 | increase of cell ratio in phase S compared to the control ([7]; HePG-2): 1.2 fold
